Results: paper PMC12114630 (Pharmaceuticals, 2025)
Where two headings read alike, the source gives them in different places.

Key:
[1] = target: T1, D4R (hD4.4R) (Homo sapiens, UniProt P21917); assay: [3H]N-methylspiperone competition, membranes; assay type: binding; details: read-out: pKi / D4R (converted)
T1 construct: gene DRD4; human cloned receptor stably expressed in HEK293 cells; membranes
T1 sequence (P21917 1-419): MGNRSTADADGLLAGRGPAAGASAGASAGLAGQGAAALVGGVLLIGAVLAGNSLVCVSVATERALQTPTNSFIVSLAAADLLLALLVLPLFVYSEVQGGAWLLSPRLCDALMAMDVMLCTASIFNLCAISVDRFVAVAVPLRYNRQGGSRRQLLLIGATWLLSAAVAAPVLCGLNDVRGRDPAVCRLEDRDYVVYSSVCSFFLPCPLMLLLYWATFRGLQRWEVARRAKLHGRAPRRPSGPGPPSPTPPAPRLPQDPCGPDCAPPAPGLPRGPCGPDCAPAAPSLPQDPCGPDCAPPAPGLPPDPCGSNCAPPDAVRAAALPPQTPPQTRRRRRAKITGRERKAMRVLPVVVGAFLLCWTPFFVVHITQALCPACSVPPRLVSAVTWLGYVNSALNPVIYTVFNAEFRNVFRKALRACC
Description: [3H]N-methylspiperone competition, membranes on D4R (hD4.4R)

[2] = target: T2, D3R (hD3R) (Homo sapiens, UniProt P35462); assay: [3H]N-methylspiperone competition, membranes; assay type: binding; details: read-out: pKi / D3R (converted)
T2 construct: gene DRD3; human cloned receptor stably expressed in HEK293 cells; membranes
T2 sequence (P35462 whole entry): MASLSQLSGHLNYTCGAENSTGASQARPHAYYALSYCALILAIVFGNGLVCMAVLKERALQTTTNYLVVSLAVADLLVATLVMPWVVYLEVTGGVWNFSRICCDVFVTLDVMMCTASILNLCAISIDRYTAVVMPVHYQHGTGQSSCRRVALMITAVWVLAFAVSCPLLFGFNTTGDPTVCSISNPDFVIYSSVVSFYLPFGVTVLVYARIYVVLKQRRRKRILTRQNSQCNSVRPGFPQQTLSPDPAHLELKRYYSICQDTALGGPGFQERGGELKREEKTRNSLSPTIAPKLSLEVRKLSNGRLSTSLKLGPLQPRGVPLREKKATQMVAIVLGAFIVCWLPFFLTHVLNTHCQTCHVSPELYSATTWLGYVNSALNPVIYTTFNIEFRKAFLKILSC
Description: [3H]N-methylspiperone competition, membranes on D3R (hD3R)

[3] = target: T3, D2R (hD2R) (Homo sapiens, UniProt P14416); assay: [3H]N-methylspiperone competition, membranes; assay type: binding; details: read-out: pKi / D2R (converted)
T3 construct: gene DRD2; human cloned receptor stably expressed in HEK293 cells; membranes
T3 sequence (P14416 whole entry): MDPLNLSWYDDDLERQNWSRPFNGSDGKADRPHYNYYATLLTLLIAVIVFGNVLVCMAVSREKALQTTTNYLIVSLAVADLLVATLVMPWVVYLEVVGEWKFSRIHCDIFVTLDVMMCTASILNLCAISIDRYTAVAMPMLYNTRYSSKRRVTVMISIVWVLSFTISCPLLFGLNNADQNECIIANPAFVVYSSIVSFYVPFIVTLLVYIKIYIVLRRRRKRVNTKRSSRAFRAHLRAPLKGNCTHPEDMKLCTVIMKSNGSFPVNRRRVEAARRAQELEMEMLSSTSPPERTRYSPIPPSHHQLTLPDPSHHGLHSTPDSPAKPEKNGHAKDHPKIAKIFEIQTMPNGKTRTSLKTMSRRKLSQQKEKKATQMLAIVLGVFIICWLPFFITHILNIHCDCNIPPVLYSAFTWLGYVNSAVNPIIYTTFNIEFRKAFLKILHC
Description: [3H]N-methylspiperone competition, membranes on D2R (hD2R)

[4] = target: T4, D4R (BRET assay) (Homo sapiens, UniProt P21917); assay: BRET Go activation, antagonist mode; assay type: cell-based
T4 construct: gene DRD4; expressed in HEK293T cells for BRET functional assays
T4 sequence (P21917 1-419): T1 sequence (P21917 1-419)

[5] = target: T4, D4R (BRET assay); assay: BRET Go activation, agonist mode; assay type: cell-based; details: read-out: 16 (converted)

CCCCC1CCN(CCN2C(=O)CCc3ccccc32)CC1 [compound 9, 1-(2-(4-Butylpiperidin-1-yl)ethyl)-3,4-dihydroquinolin-2(1H)-one]
Ki [1]: 17.4 nM | Ki [2]: 13200 nM | Ki [3]: 8910 nM

CCCCC1CCN(CCCCN2C(=O)CCc3ccccc32)CC1 [compound 10, 1-(4-(4-Butylpiperidin-1-yl)butyl)-3,4-dihydroquinolin-2(1H)-one]
Ki [1]: 23.4 nM | Ki [2]: 309 nM | Ki [3]: 1350 nM

CCCCC1CCN(CCCCCN2C(=O)CCc3ccccc32)CC1 [compound 11, 1-(5-(4-Butylpiperidin-1-yl)pentyl)-3,4-dihydroquinolin-2(1H)-one]
Ki [1]: 52.5 nM | Ki [2]: 288 nM | Ki [3]: 302 nM

O=C1CCc2ccccc2N1CCN1CCC(Cc2ccccc2)CC1 [compound 12, 1-(2-(4-Benzylpiperidin-1-yl)ethyl)-3,4-dihydroquinolin-2(1H)-one]
Ki [1]: 0.661 nM | Ki [2]: 933 nM | IC50 ([4]; read-out: 12 (converted)): 214 nM | Ki [3]: 661 nM

O=C1CCc2ccccc2N1CCCCN1CCC(Cc2ccccc2)CC1 [compound 13, 1-(4-(4-Benzylpiperidin-1-yl)butyl)-3,4-dihydroquinolin-2(1H)-one]
Ki [1]: 22.4 nM | Ki [2]: 302 nM | Ki [3]: 1070 nM

O=C1CCc2ccccc2N1CCCCCN1CCC(Cc2ccccc2)CC1 [compound 14, 1-(5-(4-Benzylpiperidin-1-yl)pentyl)-3,4-dihydroquinolin-2(1H)-one]
Ki [1]: 45.7 nM | Ki [2]: 407 nM | Ki [3]: 813 nM

CCCCN1CCC(CCCN2C(=O)CCc3ccccc32)CC1 [compound 15, 1-(3-(1-Butylpiperidin-4-yl)propyl)-3,4-dihydroquinolin-2(1H)-one]
Ki [1]: 759 nM | Ki [2]: 1070 nM | Ki [3]: 10200 nM

O=C1CCc2ccccc2N1CCCC1CCN(Cc2ccccc2)CC1 [compound 16, 1-(3-(1-Benzylpiperidin-4-yl)propyl)-3,4-dihydroquinolin-2(1H)-one]
EC50 [5]: 4.37 nM | Ki [1]: 1.62 nM | Ki [2]: 2000 nM | IC50 ([4]; read-out: 16 (converted)): 61.7 nM | Ki [3]: 3630 nM

O=C1CCc2ccccc2N1CCC1CCN(Cc2ccccc2)CC1 [compound 17, 1-(2-(1-Benzylpiperidin-4-yl)ethyl)-3,4-dihydroquinolin-2(1H)-one]
Ki [1]: 302 nM | Ki [2]: 8130 nM | Ki [3]: 12600 nM

O=C1CCc2ccccc2N1CC1CCN(Cc2ccccc2)CC1 [compound 18, 1-((1-Benzylpiperidin-4-yl)methyl)-3,4-dihydroquinolin-2(1H)-one]
Ki [1]: 275 nM | Ki [2]: 7590 nM | Ki [3]: 13200 nM

O=C1CCc2ccccc2N1CCCN1CC=C(c2ccccc2)CC1 [compound 19, 1-(3-(4-Phenyl-3,6-dihydropyridin-1(2H)-yl)propyl)-3,4-dihydroquinolin-2(1H)-one]
Ki [1]: 1.51 nM | Ki [2]: 245 nM | Ki [3]: 575 nM

O=C1CCc2ccccc2N1CCCN1CCc2ccccc2C1 [compound 20, 1-(3-(3,4-Dihydroisoquinolin-2(1H)-yl)propyl)-3,4-dihydroquinolin-2(1H)-one]
Ki [1]: 28.2 nM | Ki [2]: 229 nM | Ki [3]: 447 nM
